According to publication PMC5362899, “Structural insights into the nucleotide base specificity of P2X receptors” (Scientific Reports, 2017):

What was measured:
[1] = target: T1, zebrafish P2X4 (zfP2X4) WT (Danio rerio, UniProt F8W463); assay: Two Electrode Voltage Clamp recording of Xenopus oocytes expressing zebrafish P2X4 WT; format: cell-based; conditions: 1 mM nucleotide for 10 sec after prior application of 100 μM ATP; holding potential −70 mV; n = 4
T1 construct: The cRNAs encoding zebrafish P2X4 (NP_705939; WT); expressed in transfected cells; host or cells: Xenopus laevis oocytes injected with cRNA from pGEMHE
T1 sequence (F8W463 1-389): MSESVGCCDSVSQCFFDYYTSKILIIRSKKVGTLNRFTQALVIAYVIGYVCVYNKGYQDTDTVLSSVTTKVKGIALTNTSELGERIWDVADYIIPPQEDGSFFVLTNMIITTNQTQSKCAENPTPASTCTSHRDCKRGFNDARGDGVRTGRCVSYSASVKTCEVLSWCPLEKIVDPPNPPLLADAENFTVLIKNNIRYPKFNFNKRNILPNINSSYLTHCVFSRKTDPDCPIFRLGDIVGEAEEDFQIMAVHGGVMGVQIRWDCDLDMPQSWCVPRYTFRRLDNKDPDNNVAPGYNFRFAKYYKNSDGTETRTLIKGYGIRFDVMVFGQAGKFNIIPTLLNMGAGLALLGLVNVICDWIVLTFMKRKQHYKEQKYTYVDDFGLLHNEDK
Source text: To assess the nucleotide base specificity of zebrafish P2X4 (zfP2X4), we first performed Two Electrode Voltage Clamp (TEVC) recording of Xenopus oocytes. As shown previously, the initial “priming” application with a low concentration of ATP increases P2X receptors sensitivity to second or more applications of ligands, which is useful for evaluating the affinity of ligands. Therefore, we expressed zfP2X4 in oocytes and recorded the zfP2X4-associated currents evoked by the application of high concentrations (1 mM) of nucleoside triphosphates (ATP, CTP, GTP and UTP), following the prior application of 100 μM ATP.
Figure 1 Current responses of zebrafish P2X4 evoked by nucleoside triphosphates. (A–D) Representative currents of zebrafish P2X4 WT, evoked first by 100 μM ATP and then by (A) 1 mM ATP, (B) 1 mM CTP, (C) 1 mM GTP and (D) 1 mM UTP. Each nucleotide was applied for 10 sec. The holding potential was −70 mV.
(§1) The cRNAs encoding zebrafish P2X4 (NP_705939; WT) and rat P2X4 (NP_113782.1; WT and mutants) were transcribed from pGEMHE plasmids, using a mMessage mMachine® T7 ULTRA kit (Ambion, Huntingdon, Cambridgeshire, UK). Xenopus laevis oocytes were prepared, and RNA (100 ng for zebrafish P2X4, and 20 ng for rat P2X4) was injected into the oocytes. The oocytes were incubated at 18 °C in Barth’s solution, containing 88 mM NaCl, 1 mM KCl, 2.4 mM NaHCO3, 10 mM HEPES, 0.33 mM Ca(NO3)2, 0.41 mM CaCl2, and 0.82 mM MgSO4, pH 7.4, supplemented with 50 μg/ml gentamicin, and were used for recording after 2–3 days. Recording solutions contained 100 mM NaCl, 5 mM HEPES, 2 mM MgCl2, pH 7.3, and nucleoside triphosphates (ATP, CTP, GTP, and UTP), which were freshly prepared each day. Oocytes were held at −70 mV with a bath-clamp amplifier (OC-725C, Warner Co., USA), and macroscopic currents were recorded and analyzed using the pClamp 10 software (Molecular Devices, USA)[33][34]. We measured n = 4 for zebrafish P2X4 data and n = 7–9 for rat P2X4 data.

rat P2X4 WT (rWT) = target: T2, rat P2X4 WT (rWT) (Rattus norvegicus, UniProt P51577); assay: Two-Electrode Voltage Clamp recording, rat P2X4 WT in Xenopus oocytes; format: cell-based; conditions: for nucleotide-evoked currents: GTP and UTP applied at 3 mM (Fig. S4); for EC50: oocytes held at −70 mV, n = 9, read-out: EC50 (evoked current, dose-response)
T2 construct: rat P2X4 (NP_113782.1; WT and mutants) were transcribed from pGEMHE plasmids; expressed in transfected cells; host or cells: Xenopus laevis oocytes injected with cRNA from pGEMHE
T2 sequence (P51577 1-388): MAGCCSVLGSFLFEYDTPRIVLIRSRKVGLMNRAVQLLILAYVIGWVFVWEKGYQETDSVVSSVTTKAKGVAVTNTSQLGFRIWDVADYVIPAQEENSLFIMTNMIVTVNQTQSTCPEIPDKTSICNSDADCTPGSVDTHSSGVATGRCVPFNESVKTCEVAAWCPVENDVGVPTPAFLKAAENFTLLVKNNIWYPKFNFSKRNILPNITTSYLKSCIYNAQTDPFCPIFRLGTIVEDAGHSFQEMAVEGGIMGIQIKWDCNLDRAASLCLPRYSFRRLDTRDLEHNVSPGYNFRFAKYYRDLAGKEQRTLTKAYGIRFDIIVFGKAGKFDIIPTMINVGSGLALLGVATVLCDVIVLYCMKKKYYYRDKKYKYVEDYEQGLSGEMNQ
Source text: To further investigate the functional roles of the residues involved in the base recognition, T189 and R143, we performed an electrophysiological analysis with the rat P2X4, since its electrophysiological properties have been well established. We first assessed the functional role of T189 in zfP2X4 and introduced mutations at the equivalent residue of the rat P2X4 to create three mutants (^rT186A, ^rT186V and ^rT186S; the superscript “r” means rat P2X4). […] Therefore, we examined the ^rWT and the ^rT186S mutant.
Figure 4 Current responses of ^rWT, ^rT186S, ^rH140A and ^rH140R evoked by ATP and CTP. (A,B) Representative currents of ^rWT evoked by ATP (1–300 μM) (A) and CTP (10–10,000 μM) (B). (C,D) Representative currents of the ^rT186S mutant evoked by ATP (1–300 μM) (C) and CTP (10–10,000 μM) (D). (E,F) Representative currents of the ^rH140A mutant evoked by ATP (1–300 μM) (E) and CTP (10–10,000 μM) (F). (G,H) Representative currents of the ^rH140R mutant evoked by ATP (1–300 μM) (G) and CTP (10–10,000 μM) (H). (I–K) Concentration-response curves evoked by ATP and CTP in the ^rWT and the ^rT186S mutant (I), in the ^rWT and the ^rH140A mutant (J) and in the ^rWT and the ^rH140R mutant (K). Symbols are defined in the figure, and bars depict means ± SEM (n = 7–9).
as §1

SMILES | zfP2X4-associated currents evoked by nucleoside triphosphate [1] | nucleotide-evoked currents (rat P2X4 WT (rWT)) | EC50 (rat P2X4 WT (rWT))
Nc1ccn([C@@H]2O[C@H](COP(=O)(O)OP(=O)(O)OP(=O)(O)O)[C@@H](O)[C@H]2O)c(=O)n1 [CTP] | detected specific ATP- and CTP-evoked currents | ATP- and CTP-evoked currents were detected | 564 ± 170 µM
Nc1nc2c(ncn2[C@@H]2O[C@H](COP(=O)(O)OP(=O)(O)OP(=O)(O)O)[C@@H](O)[C@H]2O)c(=O)[nH]1 [GTP] | not GTP- and UTP-evoked currents | no GTP- and UTP-evoked currents were detected | 
Nc1ncnc2c1ncn2[C@@H]1O[C@H](COP(=O)(O)OP(=O)(O)OP(=O)(O)O)[C@@H](O)[C@H]1O [ATP, Adenosine 5-triphosphate] | detected specific ATP- and CTP-evoked currents | ATP- and CTP-evoked currents were detected | 16.2 ± 5.4 µM
O=c1ccn([C@@H]2O[C@H](COP(=O)(O)OP(=O)(O)OP(=O)(O)O)[C@@H](O)[C@H]2O)c(=O)[nH]1 [UTP] | not GTP- and UTP-evoked currents | no GTP- and UTP-evoked currents were detected | 
